# Source: patent US10597388B2, “Pyridazinone herbicides” (FMC CORPORATION, priority 2014, dated 2020)
# Legend:
# Format in all cases: in vivo
# [1] = tested on: lambsquarters (Chenopodium album); assay: Test C greenhouse herbicide test, pre- and postemergence
# How it was run: (§1)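 Preemergence: seeds sown in a loam soil–sand blend and sprayed with test chemicals in a non-phytotoxic solvent mixture containing surfactant. Postemergence: plants grown in peat-based medium and treated at 2 to 18 cm (1- to 4-leaf stage). After 13 to 15 d in a greenhouse, injury was visually rated 0–100 against controls.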
# [2] = tested on: nutsedge, yellow (yellow nutsedge, Cyperus esculentus); assay: as above
# How it was run: as §1
# [3] = tested on: ryegrass, Italian (Italian ryegrass, Lolium multiflorum); assay: as above
# How it was run: as §1
# kochia (Kochia scoparia) = assay: Test A greenhouse herbicide test, pre- and postemergence
# How it was run: (§2)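 Seeds sown in loam–sand blend got a preemergence directed soil spray of compound in non-phytotoxic solvent with surfactant. Postemergence treatment was given at 2–10 cm, one- to two-leaf stage. After ~10 d in greenhouse, injury was rated visually vs untreated controls, 0 (no effect) to 100 (complete control).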
# corn (Zea mays) = assay: as above; details: Postemergence; for Plant response rating, Corn: 125 g ai/ha, 0 to 100 scale where 0 is no effect and 100 is complete control; for Corn plant response rating: 500 g ai/ha, 0 to 100 scale, 0 is no effect, 100 is complete control
# How it was run: as §2
# [4] = tested on: wheat (Triticum aestivum); assay: as above; details: Postemergence; for Plant response rating, Wheat: 125 g ai/ha, 0 to 100 scale where 0 is no effect and 100 is complete control; for Wheat plant response rating: 500 g ai/ha, 0 to 100 scale, 0 is no effect, 100 is complete control
# How it was run: as §2
# [5] = tested on: barnyardgrass (Echinochloa crus-galli); assay: as above
# How it was run: as §2
# [6] = tested on: ragweed (common ragweed, Ambrosia elatior); assay: as above
# How it was run: as §2
# [7] = tested on: foxtail, giant (giant foxtail, Setaria faberii); assay: as above
# How it was run: as §2
# [8] = tested on: ryegrass, Italian (Italian ryegrass, Lolium multiflorum); assay: as above
# How it was run: as §2
# [9] = tested on: pigweed (Amaranthus retroflexus); assay: as above
# How it was run: as §2
# [10] = Postemergence, 125 g ai/ha, scale 0 to 100, 0 is no effect, 100 is complete control
# [11] = Postemergence, 250 g ai/ha, scale 0 to 100, 0 no effect, 100 complete control, 13 to 15 d
# [12] = Preemergence, 31 g ai/ha, scale 0 to 100, 0 is no effect, 100 is complete control
# [13] = Preemergence, 62 g ai/ha, scale 0 to 100, 0 is no effect, 100 is complete control
# [14] = Preemergence, 125 g ai/ha, scale 0 to 100, 0 is no effect, 100 is complete control
# [15] = Preemergence, 250 g ai/ha, scale 0 to 100 (0 no effect, 100 complete control)
# [16] = postemergence, 62 g ai/ha, scale 0 to 100, 0 no effect, 100 complete control
# [17] = Postemergence, 125 g ai/ha, 0 to 100 scale where 0 is no effect and 100 is complete control
# [18] = Postemergence, 500 g ai/ha, 0 to 100 scale, 0 is no effect, 100 is complete control
# [19] = Preemergence, 125 g ai/ha, 0 to 100 scale where 0 is no effect and 100 is complete control
# [20] = Preemergence, 500 g ai/ha, 0 to 100 scale where 0 is no effect and 100 is complete control
smiles,measurement,setting,value
COC(=O)Oc1c(C)nn(C)c(=O)c1-c1c(C)sc2c(C)cc(C)cc12 [Compound 81],"Plant response rating, Lambsquarters",[1]; [10],98
same,"Plant response rating, Lambsquarters",[1]; [11],100
same,"Plant response rating, Lambsquarters",[1]; [12],75
same,"Plant response rating, Lambsquarters",[1]; [13],90
same,"Plant response rating, Lambsquarters",[1]; [14],85
same,Lambsquarters plant response rating,[1]; [15],95
same,Lambsquarters plant response rating,[1]; [16],95
same,"Plant response rating, Nutsedge, Yellow",[2]; [10],90
same,"Plant response rating, Nutsedge, Yellow",[2]; [11],90
same,"Plant response rating, Nutsedge, Yellow",[2]; [12],60
same,"Plant response rating, Nutsedge, Yellow",[2]; [13],70
same,"Plant response rating, Nutsedge, Yellow",[2]; [14],80
same,"Nutsedge, Yellow plant response rating",[2]; [15],95
same,"Nutsedge, Yellow plant response rating",[2]; [16],85
same,"Plant response rating, Ryegrass, Italian",[3]; [10],90
same,"Plant response rating, Ryegrass, Italian",[3]; [11],90
same,"Plant response rating, Ryegrass, Italian",[3]; [12],80
same,"Plant response rating, Ryegrass, Italian",[3]; [13],90
same,"Plant response rating, Ryegrass, Italian",[3]; [14],90
same,"Ryegrass, Italian plant response rating",[3]; [15],90
same,"Ryegrass, Italian plant response rating",[3]; [16],85
same,"Plant response rating, Kochia",kochia (Kochia scoparia); [17],60
same,Kochia plant response rating,kochia (Kochia scoparia); [18],100
same,Kochia plant response rating,kochia (Kochia scoparia); [19],30
same,"Plant response rating, Kochia",kochia (Kochia scoparia); [20],100
same,"Plant response rating, Corn",corn (Zea mays),0
same,Corn plant response rating,corn (Zea mays),0
same,"Plant response rating, Wheat",[4],0
same,Wheat plant response rating,[4],0
same,"Plant response rating, Barnyardgrass",[5]; [17],30
same,Barnyardgrass plant response rating,[5]; [18],90
same,Barnyardgrass plant response rating,[5]; [19],90
same,"Plant response rating, Barnyardgrass","[5]; Preemergence, 500 g ai/ha, 0 to 100 scale, 0 no effect, 100 complete control",100
same,"Plant response rating, Ragweed",[6]; [17],90
same,Ragweed plant response rating,[6]; [18],100
same,Ragweed plant response rating,[6]; [19],90
same,"Plant response rating, Ragweed",[6]; [20],100
same,"Plant response rating, Foxtail, Giant",[7]; [17],90
same,"Foxtail, Giant plant response rating",[7]; [18],100
same,"Foxtail, Giant plant response rating",[7]; [19],100
same,"Plant response rating, Foxtail, Giant",[7]; [20],100
same,"Plant response rating, Ryegrass, Italian",[8]; [17],100
same,"Ryegrass, Italian plant response rating",[8]; [18],100
same,"Ryegrass, Italian plant response rating",[8]; [19],100
same,"Plant response rating, Ryegrass, Italian",[8]; [20],100
same,"Plant response rating, Pigweed",[9]; [17],100
same,Pigweed plant response rating,[9]; [18],100
same,Pigweed plant response rating,[9]; [19],100
same,"Plant response rating, Pigweed",[9]; [20],100
CCOC(=O)Oc1c(C)nn(C)c(=O)c1-c1c(C)sc2ccc(C)cc12 [Compound 82],"Plant response rating, Lambsquarters",[1]; [10],98
same,"Plant response rating, Lambsquarters",[1]; [11],100
same,"Plant response rating, Lambsquarters",[1]; [12],85
same,"Plant response rating, Lambsquarters",[1]; [13],90
same,"Plant response rating, Lambsquarters",[1]; [14],98
same,Lambsquarters plant response rating,[1]; [15],98
same,Lambsquarters plant response rating,[1]; [16],98
same,"Plant response rating, Nutsedge, Yellow",[2]; [10],85
same,"Plant response rating, Nutsedge, Yellow",[2]; [11],85
same,"Plant response rating, Nutsedge, Yellow",[2]; [12],35
same,"Plant response rating, Nutsedge, Yellow",[2]; [13],60
same,"Plant response rating, Nutsedge, Yellow",[2]; [14],60
same,"Nutsedge, Yellow plant response rating",[2]; [15],90
same,"Nutsedge, Yellow plant response rating",[2]; [16],80
same,"Plant response rating, Ryegrass, Italian",[3]; [10],85
same,"Plant response rating, Ryegrass, Italian",[3]; [11],85
same,"Plant response rating, Ryegrass, Italian",[3]; [12],80
same,"Plant response rating, Ryegrass, Italian",[3]; [13],85
same,"Plant response rating, Ryegrass, Italian",[3]; [14],85
same,"Ryegrass, Italian plant response rating",[3]; [15],90
same,"Ryegrass, Italian plant response rating",[3]; [16],85
same,"Plant response rating, Kochia",kochia (Kochia scoparia); [17],30
same,Kochia plant response rating,kochia (Kochia scoparia); [18],80
same,Kochia plant response rating,kochia (Kochia scoparia); [19],70
same,"Plant response rating, Kochia",kochia (Kochia scoparia); [20],90
same,"Plant response rating, Corn",corn (Zea mays),0
same,Corn plant response rating,corn (Zea mays),0
same,"Plant response rating, Wheat",[4],0
same,Wheat plant response rating,[4],0
same,"Plant response rating, Barnyardgrass",[5]; [17],30
same,Barnyardgrass plant response rating,[5]; [18],50
same,Barnyardgrass plant response rating,[5]; [19],40
same,"Plant response rating, Barnyardgrass",[5]; [20],70
same,"Plant response rating, Ragweed",[6]; [17],70
same,Ragweed plant response rating,[6]; [18],70
same,Ragweed plant response rating,[6]; [19],80
same,"Plant response rating, Ragweed",[6]; [20],80
same,"Plant response rating, Foxtail, Giant",[7]; [17],50
same,"Foxtail, Giant plant response rating",[7]; [18],70
same,"Foxtail, Giant plant response rating",[7]; [19],70
same,"Plant response rating, Foxtail, Giant",[7]; [20],90
same,"Plant response rating, Ryegrass, Italian",[8]; [17],70
same,"Ryegrass, Italian plant response rating",[8]; [18],80
same,"Ryegrass, Italian plant response rating",[8]; [19],80
same,"Plant response rating, Ryegrass, Italian",[8]; [20],90
same,"Plant response rating, Pigweed",[9]; [17],60
same,Pigweed plant response rating,[9]; [18],80
same,Pigweed plant response rating,[9]; [19],100
same,"Plant response rating, Pigweed",[9]; [20],100
CCOC(=O)Oc1c(C)nn(C)c(=O)c1-c1c(C)sc2c(C)cc(C)cc12 [Compound 83],"Plant response rating, Lambsquarters",[1]; [10],85
same,"Plant response rating, Lambsquarters",[1]; [11],98
same,"Plant response rating, Lambsquarters",[1]; [12],80
same,"Plant response rating, Lambsquarters",[1]; [13],85
same,"Plant response rating, Lambsquarters",[1]; [14],95
same,Lambsquarters plant response rating,[1]; [15],100
same,Lambsquarters plant response rating,[1]; [16],85
same,"Plant response rating, Nutsedge, Yellow",[2]; [10],85
same,"Plant response rating, Nutsedge, Yellow",[2]; [11],90
same,"Plant response rating, Nutsedge, Yellow",[2]; [12],85
same,"Plant response rating, Nutsedge, Yellow",[2]; [13],90
same,"Plant response rating, Nutsedge, Yellow",[2]; [14],85
same,"Nutsedge, Yellow plant response rating",[2]; [15],95
same,"Nutsedge, Yellow plant response rating",[2]; [16],80
same,"Plant response rating, Ryegrass, Italian",[3]; [10],90
same,"Plant response rating, Ryegrass, Italian",[3]; [11],95
same,"Plant response rating, Ryegrass, Italian",[3]; [12],90
same,"Plant response rating, Ryegrass, Italian",[3]; [13],90
same,"Plant response rating, Ryegrass, Italian",[3]; [14],90
same,"Ryegrass, Italian plant response rating",[3]; [15],90
same,"Ryegrass, Italian plant response rating",[3]; [16],90
same,"Plant response rating, Kochia",kochia (Kochia scoparia); [17],70
same,Kochia plant response rating,kochia (Kochia scoparia); [18],100
same,Kochia plant response rating,kochia (Kochia scoparia); [19],30
same,"Plant response rating, Kochia",kochia (Kochia scoparia); [20],100
same,"Plant response rating, Corn",corn (Zea mays),0
same,Corn plant response rating,corn (Zea mays),0
same,"Plant response rating, Wheat",[4],0
same,Wheat plant response rating,[4],20
same,"Plant response rating, Barnyardgrass",[5]; [17],40
same,Barnyardgrass plant response rating,[5]; [18],90
same,Barnyardgrass plant response rating,[5]; [19],70
same,"Plant response rating, Barnyardgrass",[5]; [20],100
same,"Plant response rating, Ragweed",[6]; [17],90
same,Ragweed plant response rating,[6]; [18],100
same,Ragweed plant response rating,[6]; [19],90
same,"Plant response rating, Ragweed",[6]; [20],100
same,"Plant response rating, Foxtail, Giant",[7]; [17],90
same,"Foxtail, Giant plant response rating",[7]; [18],100
same,"Foxtail, Giant plant response rating",[7]; [19],100
same,"Plant response rating, Foxtail, Giant",[7]; [20],100
same,"Plant response rating, Ryegrass, Italian",[8]; [17],90
same,"Ryegrass, Italian plant response rating",[8]; [18],100
same,"Ryegrass, Italian plant response rating",[8]; [19],100
same,"Plant response rating, Ryegrass, Italian",[8]; [20],100
same,"Plant response rating, Pigweed",[9]; [17],100
same,Pigweed plant response rating,[9]; [18],100
same,Pigweed plant response rating,[9]; [19],100
same,"Plant response rating, Pigweed",[9]; [20],100
